Experiments:
[1] = molecular target: T1, A1 receptor (Mus musculus, UniProt Q60612); assay: Adenosine receptor binding affinity, mouse A1
T1 sequence (Q60612 1-326): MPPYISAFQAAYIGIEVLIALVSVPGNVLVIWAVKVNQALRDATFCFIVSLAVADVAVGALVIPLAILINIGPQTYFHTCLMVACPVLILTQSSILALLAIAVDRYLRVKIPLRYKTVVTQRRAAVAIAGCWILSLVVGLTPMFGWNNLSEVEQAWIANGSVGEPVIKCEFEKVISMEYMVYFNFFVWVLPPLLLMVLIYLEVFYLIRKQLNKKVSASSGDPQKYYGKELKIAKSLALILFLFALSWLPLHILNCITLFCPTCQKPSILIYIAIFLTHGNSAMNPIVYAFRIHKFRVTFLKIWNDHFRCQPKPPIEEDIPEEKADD

[2] = Plasma exposure in Long Evans rats; type: in vivo; conditions: rat
Protocol: A minimum of 400 μL of whole blood was collected via saphenous bleed at 10 min, 20 min, 60 min, and 120 min post drug administration, i.e. at time points that coincided with the activity study (and phase 2: 5-choice experiments). Blood was collected and transferred into K3 EDTA tubes. The tubes were allowed to sit at room temperature for approximately 2 minutes and placed on wet ice until centrifugation. Blood was spun in the centrifuge with speed of 3,500 rpm for 15 minutes at 4° C. Plasma was separated and placed into a labeled 0.75 ml Matrix tube and capped. Plasma tubes were placed into a Matrix rack and stored in a −80° C. freezer. At the final time point (120 minutes post drug administration) following blood collection by cardiac puncture, the brain tissue was extracted and hemisected along the midline. One hemisphere, without the cerebellum, was placed in the 15 ml pre-weighed brain tube while the other portion was disposed. The brain tubes were weighed, frozen on dry ice, and stored at −80 C. Brain tissue and plasma samples were shipped on dry ice to Sponsor. Blood and brain levels of compound 504 were to be conducted by the Sponsor.

[3] = molecular target: A2A receptor (Rattus norvegicus, UniProt P30543); assay: Striatal A2A occupancy in rats by ex vivo autoradiography; set-up: incubation of the tracer with brain slices obtained from rats dosed with compound 504; from tissue; host or cells: striatum in coronal brain sections of male CD rats (Charles River Japan)
Chain of A2A receptor (P30543 whole entry): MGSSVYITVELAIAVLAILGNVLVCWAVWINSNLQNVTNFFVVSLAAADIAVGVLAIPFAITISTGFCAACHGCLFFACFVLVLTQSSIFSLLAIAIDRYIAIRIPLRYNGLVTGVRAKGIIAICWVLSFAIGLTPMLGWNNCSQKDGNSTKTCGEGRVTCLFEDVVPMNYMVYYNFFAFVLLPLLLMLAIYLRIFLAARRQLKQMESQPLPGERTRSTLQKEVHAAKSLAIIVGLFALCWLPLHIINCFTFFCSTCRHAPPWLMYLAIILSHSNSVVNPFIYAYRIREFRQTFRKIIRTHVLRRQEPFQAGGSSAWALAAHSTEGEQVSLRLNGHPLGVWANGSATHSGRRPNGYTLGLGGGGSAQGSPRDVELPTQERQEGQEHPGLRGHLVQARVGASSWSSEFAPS
Protocol: After that the artery and vein blood was collected into tubes containing heparin. Immediately after that the brain was removed and ebbed in OCT compound and frozen in 2-methyl butane cooled with dry ice. The frozen brains were preserved at −80 C until use.
Coronal sections (20 μm) at about bregma 1.2 mm were prepared using a cyromicrotome (Coldtome, set temperature—20 C), Sakura) and placed on a slide glass (Super Frost, Matsunami Glass; 2 or 3 sections per glass). The brain sections collected on the slide glass were preserved at −80 C. Seventy μL of the reaction solution containing the tracer at 0.1 or 0.3 nmol/L was applied on the brain section and incubated at room temperature for the preset time. The reaction solution containing the tracer was handled using siliconized tools. After the incubation with the tracer, the brain section was washed for 1 minute with ice-cold wash solution three times and rinsed with ice-cold water twice. Non-specific binding of the tracer was evaluated by performing the same reaction with the brain section prepared from drug-untreated rats in the presence of 0.1 mmol/1 NECA. The brain section was dried at room temperature, exposed to the imaging plate (BAS-TR2040, Fuji Film) in a cassette, and left in a shield box for about 24 hours. The radioactivity was recorded under the following conditions: Resolution: 50 μm; Gradation: 256; Sensitivity: 10000; Latitude:5.
These plasma samples were used as calibration curve samples.
To pre-treat plasma samples, the internal standard (I.S.) was dissolved in acetonitrile to prepare an I.S. solution at 0.03 μg/mL. Plasma sample was diluted with control plasma whenever necessary. To 0.1 mL of plasma sample, 10 μL of the I.S. solution and 1 mL of 10 mmol/L ammonium acetate were added and stirred to prepare the sample for pretreatment. The sample was pretreated using Oasis HLB Extraction Plate (30 mg, Waters). Each well was serially conditioned with 1 mL of methanol and water. One ml of the sample for pretreatment was loaded on a well. After each well was washed with 1 mL of 5% vol % methanol, the analyte was eluted with 1 mL acethonitrile. The eluate was evaporated under nitrogen gas stream and the residue was redssolved in 0.1 mL of the reconstituted solution. The sample was centrifuged at 4 C, about 1800×G for 5 minutes using […] (0.45 μm hydrophilic PVDF, Whatman). An aliquote of the filtrate was used for analysis.
Calculation of the A2A receptor occupancy in striatum was done using the below formula
Φ(%)=(1−(PSLKW−BG/A)/(PSLctrl−BG/A))*100
Where PSLKW- and PSLctrl are PSL values in the ROI of compound 504-[…] animal, respectively. PLS is Photo stimulated luminescence for detection of tracer and ROI is region of interest for tracer measurement in striatum. […]

[4] = test system: Long Evans rats; assay: Locomotor activity in habituated rats; type: in vivo, rat
Source text: Sixteen (16) male Long Evans rats were habituated to Med Associates test activity chambers (17″ W×17″ L×12″ H) over three, 90-minute sessions. […] Total distance travelled and rearing counts for the total session were the primary measure.

## Cc1ccc(C(=O)Nc2nc(-c3ccco3)c(C(=O)C3CCOCC3)s2)cn1 [Compound 504]
[1]
  Ki: 31.1 ± 1.09 nM
[2]; oral 0.01-0.1 mg/kg
  plasma concentrations: 100 to 450 ng/mL
[2]; oral 0.03-0.1 mg/kg, 60 min and 90 min sampling
  plasma levels: 150 to 400 ng/mL
[3]; hysteresis evaluation, semi compartment PK model, rat
  equilibration half-life: < 30 min
[3]; predicted from rat occupancy Emax PK/PD model
  EC80 plasma concentration of rat striatal occupancy: 1.25 µg/mL
[3]; rat, 0.3 mg/kg oral, Emax model, 95% CI 113 to 128 ng/mL, read-out: EC50 plasma concentration for striatal A2A receptor occupancy (converted)
  EC50: 304 nM
[3]; rat, read-out: A2A occupancy corresponding to marmoset EC80 of 175 ng/mL
  receptor occupancy at 0.175 µg/mL: > 50%
[4]; 0.01-1 mg/kg oral, 90 min test session
  locomotor activity (distance travelled and rearing counts): dose related increase
[4]; 90 min session, all doses
  timecourse of locomotor activity changes: peaked during the first 10 min timebin
[4]; oral, 90 min session
  dose at which magnitude of locomotor effect plateaued: 0.06 to 0.1 mg/kg
[4]; same study
  effect size on locomotor activity compared with amphetamine (1 mg/kg IP): significantly less

Source: US20180125835A1, “Dosage and Use of an A2A Antagonist” (H. Lundbeck A/S, priority 2014, published 2018)
